The values that follow come from US4389408A, “Novel ampicillin esters and production thereof” (priority 1980, dated 1983).

Series [1] in a line: Concentration in blood in oral administration (blood Ampicillin level ratio). The series is classed as in vivo, mice (ddy). How it is done: Each of the test compounds was orally administered in a dose of 50 mg/kg calculated as Ampicillin to four week old mice (ddy, body weight about 20 g, five per group) which had been caused to fast overnight (the amount is equivalent to 0.2 ml of a 5 mg/ml aqueous solution of Ampicillin). The blood was taken from the experimental animals periodically, and the concentration of Ampicillin in the serum was measured by a bioassay method. The blood Ampicillin level ratio was calculated from the following equation. [formula]

Series [2] is described as follows: in vitro. The class given is in vitro ADME. The settings on record: for metabolised at 1 h / metabolised at 2 h / metabolised at 4 h / metabolised at 6 h / metabolised at 20 h: simulated gastric juice, pH 1.2. How it is done:
Each of the test compounds was dissolved to a predetermined concentration in an acidic aqueous medium (simulated gastric juice) having a pH of 1.2 prepared by adding 2.0 g of sodium chloride, 24 ml of 10% hydrochloric acid and 3.2 g of pepsin to 1000 ml of water. While the solution was shaken at 37° C., it was periodically sampled. The sampled solution was subjected to high-speed liquid chromatography using a reversed phase partition column, and the hydrolysis ratio of the compound was determined from a decrease in the peak height of the compound in the chromatogram.

Series [3] is described as follows: in vitro. The class given is in vitro ADME. The settings on record: for metabolised at 5 min / metabolised at 10 min / metabolised at 20 min / metabolised at 0.5 h / metabolised at 1 h: simulated intestinal juice, pH 7.5. How it is done:
The procedure of (a) was repeated except that a basic aqueous medium (simulated intestinal juice) having a pH of 7.50 prepared by adding 35.8 g of disodium phosphate, 6.0 ml of 10% hydrochloric acid and 2.8 g of pancreatin to 1000 ml of water was used instead of the acidic aqueous medium.

The nature of series [4]: Conversion to Ampicillin in 40% mouse blood (bioautography). The class given is in vitro ADME. The settings on record: 40% mouse blood in pH 7.4 phosphate buffer, 37° C., 10 minutes. How it is done: The resulting Ampicillin ester hydrochloride was incubated in 40% mouse blood in pH 7.4 phosphate buffer at 37° C. for 10 minutes, and then subjected to bioautography.
The next series in a line: in vivo. The settings on record: mouse, mice, aqueous solution.
The conditions of series [5]: cited from earlier work.

Each structure is given as a SMILES string. Structures can show the parent of a compound that is named as a salt. Where two headings read alike, the source gives them in different places.

As for `Cc1oc(=O)oc1COC(=O)[C@@H]1N2C(=O)[C@@H](NC(=O)[C@H](N)c3ccccc3)[C@H]2SC1(C)C` [A, Ampicillin (5-methyl-2-oxo-1,3-dioxolen-4-yl)methyl ester hydrochloride], the “Duration of high Ampicillin concentrations in blood” value in series [1] is “maintained over a long period of time”. In the series “in vitro [2]”, the metabolised at 1 h was 7%, the metabolised at 2 h was 15%, the metabolised at 4 h was 20% and the metabolised at 6 h was 28%. For the same molecule, in “in vitro [2]”, the metabolised at 20 h is 52%. In addition, in “in vitro [3]”, the metabolised at 5 min was 16%, the metabolised at 10 min was 32%, the metabolised at 20 min is 48% and the metabolised at 0.5 h is 65%. Further, in “in vitro [3]”, the metabolised at 1 h was 80%. In addition, the “Conversion to Ampicillin” value in series [4] was “completely converted to Ampicillin”.
Turning to `CC1(C)S[C@@H]2[C@H](NC(=O)[C@H](N)c3ccccc3)C(=O)N2[C@H]1C(=O)OC1CCCc2oc(=O)oc21` (stereo partly shown) [Ampicillin (2,3-carbonyldioxy-2-cyclohexenyl)ester hydrochloride], the “Conversion to Ampicillin” value in series [4] is given as “completely converted to Ampicillin”.
In the case of `CC1(C)S[C@@H]2[C@H](NC(=O)[C@H](N)c3ccccc3)C(=O)N2[C@H]1C(=O)OCc1coc(=O)o1` [Ampicillin (2-oxo-1,3-dioxolen-4-yl)methyl ester hydrochloride], the “Conversion to Ampicillin” value in series [4] was “completely converted to Ampicillin”.
One may read the LD50 as the dose expected to kill half of the subjects tested. Lower therefore signals a more toxic substance. Turning to `CC1(C)S[C@@H]2[C@H](NC(=O)[C@H](N)c3ccccc3)C(=O)N2[C@H]1C(=O)OCc1oc(=O)oc1-c1ccccc1` [B, Ampicillin (2-oxo-5-phenyl-1,3-dioxolen-4-yl)methyl ester hydrochloride], in series [1], the “Duration of high Ampicillin concentrations in blood” value is given as “maintained over a long period of time”. In addition, in “in vitro [2]”, the “Rate of hydrolysis relative to that of Ampicillin phthalidyl ester” value is on record as “about one half”, the metabolised at 1 h is 9%, the metabolised at 2 h is 20% and the metabolised at 4 h is 30%. In the series “in vitro [2]”, this molecule registered a metabolised at 6 h of 35% and a metabolised at 20 h of 65%. Further, in the series “in vitro [3]”, the “Rate of hydrolysis relative to that of Ampicillin phthalidyl ester” value is recorded as “about one half”, the metabolised at 5 min was 18%, the metabolised at 10 min is 37% and the metabolised at 20 min is 53%. Also, in the series “in vitro [3]”, the metabolised at 0.5 h was 70% and the metabolised at 1 h was 90%. The LD50 in “in vivo” (intravenous) was 270 mg/kg. In the series “in vivo” (ip, intraperitoneal), the LD50 stood at 1770 mg/kg. Further, the LD50 in “in vivo” (oral) was > 5000 mg/kg. Besides, the “Conversion to Ampicillin” value in series [4] is reported as “completely converted to Ampicillin”.
Regarding `CC1(C)S[C@@H]2[C@H](NC(=O)[C@H](N)c3ccccc3)C(=O)N2[C@H]1C(=O)OC1OC(=O)c2ccccc21` (stereo partly shown) [C, Ampicillin phthalidyl ester hydrochloride, reference compound], in the series “in vitro [2]”, the metabolised at 1 h is 18%, the metabolised at 2 h was 31%, the metabolised at 4 h is 43% and the metabolised at 6 h is 55%. The metabolised at 20 h in “in vitro [2]” was 100%. In “in vitro [3]”, this molecule registered a metabolised at 5 min of 39%, a metabolised at 10 min of 61%, a metabolised at 20 min of 90% and a metabolised at 0.5 h of 95%. This molecule displayed a metabolised at 1 h in the series “in vitro [3]” of 100%.
For `CC(C)(C)C(=O)OCOC(=O)[C@@H]1N2C(=O)[C@@H](NC(=O)[C@H](N)c3ccccc3)[C@H]2SC1(C)C` [Pivampicillin, Ampicillin pivaloyloxymethyl ester], the “Blood Ampicillin concentrations in oral vs intramuscular administration” value in series [5] (oral administration, British Pat. Nos. 1,215,812 and 1,364,672) was “comparable blood Ampicillin concentrations in oral administration to those obtained by intramuscular administration”.
In the case of `CC1(C)S[C@@H]2[C@H](NC(=O)[C@H](N)c3ccccc3)C(=O)N2[C@H]1C(=O)OC1OC(=O)c2ccccc21` (stereo partly shown) [Talampicillin, Ampicillin phthalidyl ester], the “Blood Ampicillin concentrations in oral vs intramuscular administration” value in series [5] (in vivo, po) is given as “comparable blood Ampicillin concentrations in oral administration to those obtained by intramuscular administration”.
